The record followed here is patent publication US20180267043A1, “USE OF BIOMARKERS FOR PREDICTING CLINICAL SENSITIVITY TO CANCER TREATMENT” (CELGENE CORPORATION, priority 2014, published 2018).

The test system of experiment [1] is Aiolos, CK1a, GSPT1 in OCI-LY10. As to the kind of experiment: Western blot analysis in lymphoma cell line OCI-LY10. The format is cell-based. As to conditions: OCI-LY10, 100 μM Compound C, 6 hours. From the text: Cells were harvested with RIPA buffer, and proteins from cell lysates were separated by 10% sodium dodecyl sulfate polyacrylamide (SDS-PAGE) gel electrophoresis (Bio-Rad), then transferred to PVDF membranes (Invitrogen). Immunoblots were probed with antibodies recognizing Aiolos (9-9-7; Celgene), CK1a (Abcam), GSPT1 (Sigma), ZFP91 (LSBio) and β-actin (Li-Cor). Signals were detected with a Li-Cor Odyssey imager.
A general note: Immunoblotting shows a protein as a band on a membrane.

The target of experiment [2] is T1, GSPT1 and eRF1 (Homo sapiens, UniProt P15170+).
T1 construct: endogenous in cells; host or cells: 293FT HEK cells
In words: Immunoblotting of GSPT1 and eRF1 in 293FT HEK cells. The format is cell-based. How it is done: (§1) CRBN+/+(293FT parental) cells were treated in parallel with CRBN−/− (CRISPR) cells, CRBN−/− cells expressing CRBN isoform 2, and CRBN−/− cells expressing CRBN isoform 2 with a W385A mutation.

Experiment [3] deals with GSPT1 and eRF1. Described as above. The format is cell-based, human. As to conditions: CRBN−/− cells with CRBNiso2 or CRBNiso2 W385A mutant. How it is done:
as §1

The test system of experiment [4] is DF15. In words: CellTiter-Glo cell viability assay after GSPT1 knockdown, DF15. The format is cell-based, human. As to conditions: DF15 expressing shGSPT1-1 or shGSPT1-3 vs parental or control shRNA, 0.01 nM to 0.1 μM, day 9. How it is done: The effect of depletion of GSPT1 on the anti-proliferative effect of Compound C was determined in human multiple myeloma (MM) cell lines DF15 and RPMI-8226. Treatment compounds were titrated from 0.01 nM to 0.1 μM. Cell proliferation was measured by the CellTiter-Glo cell viability assay (RLU-Relative Luminescent Unit) at day 9 after GSPT1 knockdown by shGSPT1-1 or shGSPT1-3.
(In general: ATP-based viability assays read luminescence as a measure of living cells.)

Experiment [5] concerns U937. As to the kind of experiment: CellTiter-Glo cell viability assay, U937. To be noted: 48 hours. The format is cell-based, human. The method, then:
The effect of overexpression of GSPT1 on the anti-proliferative effect of Compound C was determined in human histiocytic lymphoma cell line U937 and human leukemia cell line Molm13. Treatment compounds were titrated from 0.1 nM to 1 μM. Cell proliferation was measured by CellTiter-Glo cell viability assay at 48 hours after treatment.

The subject of experiment [6] is Acute Myelogenous Leukemia (AML3) cell line. As to the kind of experiment: CellTiter-Glo cell viability assay after GSPT1 knockdown, AML3. The format is cell-based, human. How it is done: The effect of depletion of GSPT1 on the anti-proliferative effect of Compound C was determined in human Acute Myelogenous Leukemia (AML3) cell line. Cells were infected with lentiviral vectors expressing control shRNA, shGSPT1-1 or shGSPT1-3 for 7 days and then treated with DMSO, Compound C in a titration from 0.0001 μM to 1 μM. Two days after treatment, cell proliferation was measured by CellTiter-Glo cell viability assay.

Experiment [7] deals with PERK pathway of UPR. In words: RNA level of PERK pathway components in 293FT HEK cells. The format is cell-based, human. To be noted: parental and control shRNA cells, 1 nM or 10 nM, 24 hours. The method, then:
The mechanism of Compound C-induced Unfolded Protein Response (UPR) was studied in 293FT HEK cells. Parental cells, CRBN−/− cells, cells expressing control shRNA, or cells expressing GSPT1-specific shRNA were treated with DMSO, 1 nM, or 10 nM Compound C. The RNA level of variant cellular components along the PERK pathway of UPR was measured and normalized with GAPDH at 24 hours after treatment.

In experiment [8] the test system is GSPT1, BIP, ER stress or apoptosis pathways. In words: Expression level of ER stress and apoptosis components in 293FT HEK cells. The format is cell-based, human. As to conditions: 20 hours. The method, then: CRBN+/+ and CRBN−/− cells were treated with DMSO alone, 1 nM, or 10 nM Compound C. After 20 hours, the expression level of various cellular components along the endoplasmic reticulum (ER) stress or apoptosis pathways was measured. […] BIP is an ER luminal KDEL protein that requires binding with KDEL receptor in the cis-Golgi to be retro-transported into the ER lumen for retention. Loss of GSPT1 leads to the inactivation of the eRF1/GSPT1 complex and therefore allows translation readthrough of de novo sysnthesized proteins such as BIP. Addition of extra residues to the BIP C-terminus blocks the recognization of KDEL motif and BIP C-terminal epitopes by the KDEL receptor and BIP C-terminal antibodies, respectively. […] BIP interacts with the ER luminal domain of UPR sensors PERK, IRE1, and ATF6 to prevent their activation. Reduction of BIP C-terminal immunoreactivity indicates a mislocalization of BIP, which presumably leads to its dissociation from PERK, IRE1, and ATF6 and induces UPR.

Experiment [9] concerns GSPT1, IKZF1, IKZF3, UPR or apoptosis pathways. In words: Protein level of UPR and apoptosis components in DF15 cells. The format is cell-based, human. To be noted: DF15, 20 nM, 5 or 10 hours. How it is done:
Cells were treated with DMSO alone or 20 nM Compound C. After 5 or 10 hours, the expression level of various cellular components along UPR or apoptosis pathways was measured. […] Loss of BIP immunoreactivity indicates an induction of UPR.

Experiment [10] deals with RPMI-8226. In words: Sensitivity to compound-induced ER stress and apoptosis, RPMI-8226. The format is cell-based, human. The method, then: (§2) The GSPT1 dependency was shown by GSPT1-specific shRNA knockdown experiment. The GSPT1 degradation efficiency was shown by Western Blot. The induction of ATF3 or DDIT3 was measured by quantitative RT-PCR. […] Time needed for Compound C-induced ER stress or Compound C-induced apoptosis was summarized. […] High ER demand may contribute to the sensitivity of certain cancer cells to the treatment of Compound C.

The test system of experiment [11] is KG1, DF15, AML3, and 293FT. As to the kind of experiment: Sensitivity to compound-induced ER stress and apoptosis, KG1, DF15, AML3, 293FT. The format is cell-based, human. How it is done:
as §2

Consider `Cc1ccc(NC(=O)NCc2ccc3c(c2)CN(C2CCC(=O)NC2=O)C3=O)cc1Cl` (stereo not shown) [Compound C, 1-(3-chloro-4-methylphenyl)-3-((2-(2,6-dioxopiperidin-3-yl)-1-oxoisoindolin-5-yl)methyl)urea], for which, in experiment [1], the “Aiolos and CK1a protein levels” value was “also reduce”. Moreover, the GSPT1 protein level result in experiment [1] was “reduces”. In addition, the “Degradation of GSPT1 and eRF1” value is “induces degradation of GSPT1 and eRF1 in CRBN+/+ cells” in experiment [2] (CRBN+/+ (293FT parental) cells); “reduces this degradation effect” in experiment [2] (CRBN+/+ cells with overexpression of GSPT1); “restores Compound C-induced degradation of GSPT1 and eRF1” in [3]. Besides, the Anti-proliferative effect entry is given as “increased anti-proliferative effect” in experiment [4]; “the anti-proliferative effect of Compound C reduces” in [5] (U937, exogenous GSPT1 overproduced via EF1a promoter); “completely abolished” in [5] (U937 CRBN −/− cells); “exhibited anti-proliferative effect” in experiment [6] (AML3 (FIG. 12A)); “increased anti-proliferative effect” in experiment [6] (AML3 expressing shGSPT1-1 or shGSPT1-3 vs parental or control shRNA, 0.0001 μM to 1 μM, two days). Further, the Cell proliferation result in experiment [5] (U937 parental cells, 0.1 nM to 1 μM) was “inhibits cell proliferation”. Further, the “RNA level of ATF4, ATF3, DDIT3, PPP1R15A, and GADD45A normalized with GAPDH” value in experiment [7] is “induces expression of ATF4, ATF3, DDIT3, PPP1R15A, and GADD45A”. For the same compound, in experiment [8] (293FT CRBN+/+ cells, 1 nM or 10 nM), the “Degradation of GSPT1” value is listed as “induces degradation of GSPT1 in CRBN+/+ cells”. Further, in [8] (293FT HEK cells), the “Cellular components in acute apoptotic cell death” value is “are not affected”. Also, in experiment [8] (293FT, 1 nM or 10 nM), the “Immunoreactivity of BIP antibody that binds to BIP amino-terminal region” value is given as “is not affected”. In addition, in experiment [8] (293FT, 1 nM or 10 nM, dose dependent), the “Immunoreactivity of KDEL antibody and BIP carboxyl-terminus (BIP-CT) antibody” value is “dramatically decreased”. Besides, the “Degradation of GSPT1, IKZF1, and IKZF3” value in experiment [9] is “induces degradation of GSPT1, IKZF1, and IKZF3”. For the same compound, the “Immunoreactivity of antibodies recognizing KDEL motif and BIP C-terminal epitope” value in [9] is on record as “loss of immunoreactivity”. For the same compound, the “Level of pEIF2α, ATF4, ATF3, DDIT3, cleaved caspase 3, and cleaved PARP” value in experiment [9] is “increases the level”. The “Sensitivity to compound-induced ER stress and apoptosis” value in [10] is “resistant to Compound C-induced ER stress and apoptosis”. In experiment [11] (KG1, DF15, AML3, and 293FT), the “Sensitivity to the compound” value is reported as “exhibit different levels of sensitivity to Compound C”. Besides, the “Order in time of compound-induced ER stress and apoptosis” value in [11] (cancer cell lines of FIG. 21) was “Compound C-induced ER stress precedes Compound C-induced apoptosis”.
